PMC6479881 (Molecules, 2019)

Molecular target: T1, Enterococcus faecalis thymidylate synthase (EfTS) (Enterococcus faecalis, UniProt Q834R3)
T1 construct: gene thyA
T1 sequence (Q834R3 1-315): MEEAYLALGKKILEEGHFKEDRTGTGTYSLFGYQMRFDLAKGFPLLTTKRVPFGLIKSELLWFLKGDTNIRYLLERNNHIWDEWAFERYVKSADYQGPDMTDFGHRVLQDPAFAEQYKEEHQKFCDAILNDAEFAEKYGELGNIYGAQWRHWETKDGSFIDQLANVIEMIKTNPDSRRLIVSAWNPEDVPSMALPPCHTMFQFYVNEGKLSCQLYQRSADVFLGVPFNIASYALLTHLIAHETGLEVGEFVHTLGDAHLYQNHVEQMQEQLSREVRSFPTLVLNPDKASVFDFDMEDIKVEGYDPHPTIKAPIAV
Test: crystal structure at […] Å; spectrophotometric enzyme inhibition assay (IC50 […], Ki calculated)
Assay type: biochemical

O=c1[nH]c(=O)n([C@H]2C[C@H](O)[C@@H](COP(=O)(O)O)O2)cc1F [FdUMP, 5-fluoro-2′-deoxyuridine-5′-monophosphate]
Ki: 74 nM
